Experimental data published in ChEMBL document CHEMBL1201862, “PubChem BioAssay data set” (2004).
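Interpolation was linear, between the two tested concentrations surrounding the appropriate level; five concentrations were tested over 48 hours in 96-well plates. GI50 marks 50% less growth.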 Activity calls are given as the source filed them. Rule as the data show it: active = GI50 up to about 1.1 µM and inactive = higher.

Assays:
Assay in all cases: NCI-60 cell line screen, 48 h
[1] = test system: A549
[2] = test system: BT-549
[3] = test system: CCRF-CEM
[4] = test system: COLO 205
[5] = test system: EKVX
[6] = test system: HCT-116
[7] = test system: HOP-62
[8] = test system: HOP-92
[9] = test system: MOLT-4
[10] = test system: NCI-H522
[11] = test system: NCI/ADR-RES
[12] = test system: OVCAR-5
[13] = test system: SF-268
[14] = test system: SN12C
[15] = test system: T47D
[16] = test system: UACC-62
[17] = test system: UO-31

| SMILES | GI50 [1] | GI50 [2] | GI50 [3] | GI50 [4] | GI50 [5] | GI50 [6] | GI50 [7] | GI50 [8] | GI50 [9] | GI50 [10] | GI50 [11] | GI50 [12] | GI50 [13] | GI50 [14] | GI50 [15] | GI50 [16] | GI50 [17] |
| --- | --- | --- | --- | --- | --- | --- | --- | --- | --- | --- | --- | --- | --- | --- | --- | --- | --- |
| Cc1ccc(/C=N\NC(=O)c2ccncc2)s1 | > 100 µM (inactive) | > 100 µM (inactive) | > 100 µM (inactive) | > 100 µM (inactive) | > 100 µM (inactive) | > 100 µM (inactive) | > 100 µM (inactive) | > 100 µM (inactive) | > 100 µM (inactive) | > 100 µM (inactive) | > 100 µM (inactive) | > 100 µM (inactive) | > 100 µM (inactive) | > 100 µM (inactive) | > 100 µM (inactive) | > 100 µM (inactive) | > 100 µM (inactive) |
| Cc1ccc(C2=CC(=O)/C(=C\C(=O)c3ccc(Br)cc3)O2)c(C)c1 | 18.7 µM (inactive) | 7.03 µM (inactive) | 2.69 µM (inactive) | 3.85 µM (inactive) | 28.6 µM (inactive) | 7.64 µM (inactive) | 42.4 µM (inactive) | 6.4 µM (inactive) | 3.52 µM (inactive) | 1.69 µM (inactive) | 7.91 µM (inactive) | 23.7 µM (inactive) | 16.2 µM (inactive) | 13.2 µM (inactive) | 8.79 µM (inactive) | 9.48 µM (inactive) | 9.02 µM (inactive) |
| CN(C)c1ccc(/C=N/c2ccc(-c3nc4ccccc4[nH]3)cc2)cc1 | > 100 µM (inactive) | 19.3 µM (inactive) | 37.7 µM (inactive) | 60.8 µM (inactive) | > 100 µM (inactive) | 43.6 µM (inactive) | > 100 µM (inactive) | > 100 µM (inactive) | 25.7 µM (inactive) | 56 µM (inactive) | 1.09 µM (active) | > 100 µM (inactive) | 60 µM (inactive) | 40.6 µM (inactive) | 31.3 µM (inactive) | – | 56.4 µM (inactive) |
| CCCCNc1nc(NC2OCC(OC(C)=O)C(OC(C)=O)C2OC(C)=O)c(N=O)c(=O)n1C (configuration not stated) | > 10 µM (inactive) | > 10 µM (inactive) | > 10 µM (inactive) | > 10 µM (inactive) | > 10 µM (inactive) | > 10 µM (inactive) | > 10 µM (inactive) | > 10 µM (inactive) | > 10 µM (inactive) | > 10 µM (inactive) | > 10 µM (inactive) | > 10 µM (inactive) | > 10 µM (inactive) | > 10 µM (inactive) | > 10 µM (inactive) | > 10 µM (inactive) | – |
| N=C(N)SCCON1C(=O)c2ccccc2C1=O | > 100 µM (inactive) | > 100 µM (inactive) | > 100 µM (inactive) | > 100 µM (inactive) | > 100 µM (inactive) | > 100 µM (inactive) | > 100 µM (inactive) | > 100 µM (inactive) | > 100 µM (inactive) | > 100 µM (inactive) | > 100 µM (inactive) | > 100 µM (inactive) | > 100 µM (inactive) | > 100 µM (inactive) | > 100 µM (inactive) | > 100 µM (inactive) | > 100 µM (inactive) |
| Cc1ccc2nc(Cl)c(/C=N/N3C(=O)/C(=C/Cc4ccco4)N=C3c3ccccc3)cc2c1 | 36.4 µM (inactive) | 29.7 µM (inactive) | > 100 µM (inactive) | 51.5 µM (inactive) | 30.5 µM (inactive) | 18.5 µM (inactive) | 62.2 µM (inactive) | 28.9 µM (inactive) | 58.6 µM (inactive) | 27.4 µM (inactive) | 28.4 µM (inactive) | > 74.6 µM (inactive) | 31.3 µM (inactive) | 26.5 µM (inactive) | > 50 µM (inactive) | 60.5 µM (inactive) | 23.7 µM (inactive) |
| O=[N+]([O-])c1ccc2nc3ccccc3cc2c1 | 2.5 µM (inactive) | 4.05 µM (inactive) | – | 3.56 µM (inactive) | 5.31 µM (inactive) | 1.65 µM (inactive) | 2.26 µM (inactive) | 3.28 µM (inactive) | < 0.01 µM (active) | 2.81 µM (inactive) | 1.51 µM (inactive) | 2.48 µM (inactive) | 6.44 µM (inactive) | 1.96 µM (inactive) | 3.63 µM (inactive) | 1.19 µM (inactive) | 3.4 µM (inactive) |
| Cc1ccc(C)c(N2C(=O)C(=O)c3c(C)ccc(C)c32)c1 | 25.7 µM (inactive) | 19.5 µM (inactive) | – | 34.9 µM (inactive) | 60.7 µM (inactive) | 16.3 µM (inactive) | 40.6 µM (inactive) | 23.6 µM (inactive) | 22.3 µM (inactive) | 15.5 µM (inactive) | 23.6 µM (inactive) | 57.1 µM (inactive) | 23.3 µM (inactive) | 26.8 µM (inactive) | 11.6 µM (inactive) | 16.3 µM (inactive) | 22.9 µM (inactive) |
| C[C@@]12C[C@@H](c3ccccc3O1)N1CCSC1=N2 | – | > 100 µM (inactive) | – | > 100 µM (inactive) | > 100 µM (inactive) | > 100 µM (inactive) | > 100 µM (inactive) | > 100 µM (inactive) | 75.5 µM (inactive) | > 100 µM (inactive) | > 100 µM (inactive) | > 100 µM (inactive) | > 100 µM (inactive) | > 100 µM (inactive) | > 100 µM (inactive) | > 100 µM (inactive) | > 100 µM (inactive) |
